Reference: patent US8993527B2, “Methods, compositions, and formulations for preventing or reducing adverse effects in a patient” (Pericor Therapeutics, Inc., priority 2005, dated 2015)

Legend:
[1] = biological target: T1, purified pig heart adenosine kinase (Sus scrofa, UniProt A0A5G2R0F5); assay: Adenosine kinase activity; format: biochemical; conditions: 0.5 μM [U14C] adenosine, 1 mM ATP, 20 minutes at 37° C.
T1 construct: 0.1 μg of purified pig heart adenosine kinase; from tissue; host or cells: pig heart
Procedure: Inhibition of enzyme activity was determined using a 0.1 ml assay mixture containing 50 mM Tris-maleate, pH 7.0, 0.1% (w/v) BSA, 1 mM ATP, 1 mM MgCl2, 0.5 μM [U^14 C] adenosine (500 mCi/mmol) and 0.1 μg of purified pig heart adenosine kinase. Different concentrations of test compound were incubated in the assay mixture for 20 minutes at 37° C. From each reaction mixture, 20 μl portions were removed and spotted on 2^2 pieces of Whatman DE81 filter paper. The papers were then washed to remove [^14 C] adenosine in 1 mM ammonium formate followed by deionized water and finally 95% ethanol. The papers were dried, and [^14C] AMP measured by scintillation counting. Activities were determined from the amount of [^14C] AMP formed.

[2] = tested on: platelet aggregation in human whole blood; assay: Inhibition of platelet aggregation in human whole blood; format: cell-based; conditions: Homo sapiens, Platelet, 10 min, 10 minutes at 37° C., 10 µM adenosine added, ADP (6-25 μM)
Procedure: Whole blood was drawn from healthy donors and collected in 0.1 vol. of sodium citrate to prevent coagulation. Platelet aggregation was measured by the impedance technique using a Whole Blood Aggregometer. The test compounds were incubated in whole blood for 10 minutes at 37° C. and 10 µM adenosine was added 5 minutes before eliciting aggregation. Aggregation was induced by addition of ADP (6-25 μM) at the minimum concentration inducing full aggregation in untreated controls.

[3] = biological target: T2, NBTI-specific adenosine transport site (UniProt O54698); assay: [3H]-NBTI binding assay; conditions: read-out: ED50 (50% displacement of bound [3H]-NBTI); 0.5 mg neuronal membrane protein, 0.5 nM [3H]-NBTI, 30 minutes
T2 sequence (O54698 1-457): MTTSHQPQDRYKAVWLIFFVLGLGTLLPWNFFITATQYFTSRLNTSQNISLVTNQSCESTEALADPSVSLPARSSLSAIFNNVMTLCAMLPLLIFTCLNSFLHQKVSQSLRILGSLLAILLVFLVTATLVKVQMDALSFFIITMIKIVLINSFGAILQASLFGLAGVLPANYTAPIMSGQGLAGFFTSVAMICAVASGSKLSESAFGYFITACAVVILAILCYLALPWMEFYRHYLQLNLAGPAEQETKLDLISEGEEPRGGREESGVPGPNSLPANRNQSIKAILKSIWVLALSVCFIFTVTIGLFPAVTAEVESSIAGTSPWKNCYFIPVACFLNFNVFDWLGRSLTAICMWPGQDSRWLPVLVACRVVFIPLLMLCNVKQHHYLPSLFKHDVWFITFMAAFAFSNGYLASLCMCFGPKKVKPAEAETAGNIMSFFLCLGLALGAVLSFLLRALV
Procedure: Increasing concentrations of the test compounds were incubated for 30 minutes with 0.5 mg neuronal membrane protein together with 0.5 nM [^3 H]-NBTI in a Tris buffer (pH 7.4) at room temperature. The assays were quenched and membranes collected by rapid filtration. Filters were then solubilized and radioactivity determined by scintillation counting.

[4] = tested on: longitudinal muscle from the guinea pig ileum; assay: Inhibition of stimulated contraction in isolated ileum; conditions: electrically stimulated guinea pig ileum muscle
From the text: These are detailed in Table II.

[5] = tested on: coronary endothelial cells; assay: Inhibition of adenosine utilization in cell culture; format: cell-based; conditions: Endothelial cell, 1 μM [3H] adenosine, 15 minutes
Procedure: In this assay, endothelial cells were incubated with 5 μM or 50 μM of the test compound together with 1 μM [^3H] adenosine for 15 minutes. Inhibition of adenosine utilization was determined by measuring the concentration of extracellular adenosine by scintillation counting following separation by thin layer chromatography (TLC).

[6] = tested on: patients undergoing coronary artery bypass surgery; assay: Aspirin within 48 hours of revascularization: prospective study of CABG patients; format: in vivo
From the text: A prospective, longitudinal study enrolled 5,436 patients. Eligible patients included those with medically-refractory coronary artery disease and scheduled for coronary artery bypass surgery at 70 medical institutions among 17 countries in North and South America, Europe, the Middle East and Asia. At each institution, 100 patients were to be prospectively enrolled according to a systematic sampling scheme that allowed a random sampling of patients at each institution among all patients undergoing surgery at that institution.
Of the 5,436 patients enrolled, 5,065 patients completed the study and were included in the final analysis. Of the 371 patients excluded, 32 were excluded due to patient withdrawal, 2 due to death prior to surgery, 97 due to cancellation or rescheduling of surgery, 132 patients due to change in procedure, 11 due to inadvertent enrollment in another study, 86 due to incomplete data and 11 due to incomplete blood sampling, shipping or storage.
Aspirin was administered in doses of 160 mg to 650 mg to 3,001 patients within 48 hours of revascularization. All potential side-effects associated with aspirin use were recorded daily by blinded investigators. Independent investigators coded all medications received-including pro- and anti-thrombotic and pro- and anti-coagulant medications, and blood products—by day throughout hospitalization, as well as at admission and at discharge, or until death.
For each enrolled patient, approximately 7,500 fields of data were collected throughout the patient's index hospitalization, from admission until discharge, by independent investigators; treated physicians were blinded to all research data. Data included demographic, historical, clinical, laboratory, eloectrocardiographic, specialized testing, resource utilization, and adverse outcomes. Following last patient enrollment, all data fields for each patient were queried centrally for completeness and accuracy, with all changes documented prior to database closure.
All outcomes were prespecified, defined by protocol, and discerned by investigators blinded to treatment group. Fatal and non-fatal outcomes were classified as cardiac (myocardial infarction, congestive heart failure and cardiac death), cerebral (stroke, encephalopathy and cerebral death), renal (dysfunction, failure and renal death), gastrointestinal (ischemia, infarction and GI death), or other (such as infectious, pulmonary). The diagnosis of myocardial infarction required either: the development of new Q waves (as defined by Minnesota Code 1-1-1I or 1I-2-7); or new persistent S T-segment or T-wave changes (Minnesota Code 4-1, 4-2, 5-1 or 5-2) associated with an elevation of CK-MB isoenzyme values; or autopsy evidence of acute myocardial infarction. The diagnosis of heart failure required either: the use of a ventricular assist device; or the use of continuous inotropic support for at least 24 hours; or autopsy evidence of heart failure. Cerebral outcomes were classified as: clinically diagnosed stroke or encephalopathy; or CT, MRI or autopsy evidence of a focal or global defect. Renal dysfunction was defined as: a serum creatinine ≧177 μmol/L accompanied by a ≧62 μmol/L rise over baseline; and renal failure was defined as dysfunction requiring dialysis, or autopsy evidence of renal failure. Gastrointestinal ischemia was defined as abdominal pain diagnosed as intestinal ischemia, or detected at exploration; infarction required bowel resection, or autopsy evidence of intestinal infarction.
The risk of death for aspirin taking versus control populations were compared using the Chi-Square test. Individual ischemic outcomes involving the heart, brain, kidney and gastrointestinal tract, and combined ischemic outcomes were compared using Fisher's Exact Test or the Chi-Square test as appropriate. Odds ratios and the 95% confidence intervals are presented with associated P values. […]

ischemic rat hearts = assay: Rat heart ischemia model: tissue adenosine levels; format: in vivo; conditions: intraperitoneal; hearts excised after 60 minutes, incubated 60 minutes at 37° C.
Procedure: Male rats were injected intraperitonealy with either the AICA riboside analog, AICA riboside or saline, as a control. After 60 minutes, the hearts were excised and incubated at 37° C. for a further 60 minutes. Tissue extracts were prepared and analyzed for adenosine by high performance liquid chromatography (HPLC).

[7] = Oral bioavailability and half-life in fasted adult beagles; format: in vivo, dog
Procedure: Heparinized blood and urine were collected at selected intervals over 24 hours. Each sample was chilled, centrifuged at 4° C. and frozen prior to HPLC analysis.

T1 sequence (A0A5G2R0F5 1-362): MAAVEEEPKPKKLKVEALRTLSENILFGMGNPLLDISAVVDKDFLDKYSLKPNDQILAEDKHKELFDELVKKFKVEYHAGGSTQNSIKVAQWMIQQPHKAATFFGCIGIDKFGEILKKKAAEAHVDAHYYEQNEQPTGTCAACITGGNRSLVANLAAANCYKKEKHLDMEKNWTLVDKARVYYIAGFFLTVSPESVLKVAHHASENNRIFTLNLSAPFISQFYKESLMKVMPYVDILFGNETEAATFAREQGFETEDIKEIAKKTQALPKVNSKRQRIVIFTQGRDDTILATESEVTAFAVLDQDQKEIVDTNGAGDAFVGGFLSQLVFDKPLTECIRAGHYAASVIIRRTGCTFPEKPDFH

With `NC(=O)c1nc(S)n([C@@H]2O[C@H](CO)[C@@H](O)[C@H]2O)c1N` [27 (1-395), 5-amino-2-thio-1-β-D-ribofuranosyl imidazole-4-carboxamide] the IC50 [1] was 8 µM, the melting point was 205 to 208 °C and the IC50 [2] was 950 µM. The EC50 [3] was 344 µM and the IC50 ([4]; Cavia porcellus) was 500 µM.
With `Nc1c(C(=O)NCc2ccc([N+](=O)[O-])cc2)ncn1C1OC(CCl)C(O)C1O` (stereo not shown) [51 (1-466)] the melting point was 174 to 176 °C, the IC50 [2] was 193 µM and the inhibition at 5 µM [5] was 27 ± 2%. For the same molecule, the inhibition at 50 µM [5] was 65 ± 2%.
With `CC(=O)Oc1ccccc1C(=O)O` [Aspirin] the “Odds Ratio for mortality (multivariate)” value ([6]; Aspirin use (admission)) was 1.46, the “Odds Ratio for mortality (multivariate)” value ([6]; Aspirin use (prior to surgery)) was 0.77 and the “Odds Ratio for mortality (multivariate)” value ([6]; Aspirin use following revascularization) was 0.27. For the same molecule, the “Odds Ratio for mortality (multivariate)” value ([6]; Discontinuation of aspirin use) was 1.04, the Length of hospitalization ([6]; aspirin group, 11.32±9.44 without) was 9.57±7.14 and the “patients who died within 12 hours of surgery” value ([6]; aspirin group, 25 patients in the control group) was “none”. The “patients who died within 48 hours of surgery” value ([6]; aspirin group, 42 patients in the control group) was “one”, the “risk of dying during hospitalization” value ([6]; aspirin within 48 hours of revascularization, 5.9% without) was 1.4% and the “non-fatal ischemic complications (heart, brain, kidney or gastrointestinal tract)” value ([6]; aspirin within 48 hours of revascularization, 24.5% without) was 13.6%. For the same molecule, the reduction in mortality ([6]; first use of aspirin 48 hours after surgery, not significant (P=0.534)) was 15%.
In the case of `CC(=O)OC[C@H]1O[C@@H](c2nc(C(N)=O)c(N)[nH]2)[C@H](OC(C)=O)[C@@H]1OC(C)=O` [Compound No. 2 (1-111), 5-Amino-(2,3,5-tri-O-acetyl-beta-D-ribofuranosyl)imidazole-4-carboxamide], the melting point is reported as 128 to 129 °C.
With `Nc1c(C(=O)NC2CC2)ncn1[C@@H]1O[C@H](CO)[C@@H](O)[C@H]1O` [Compound No. 12 (1-232), 5-Amino-1-beta-D-ribofuranosylimidazole-4-N-(cyclopropyl)carboxamide] the “Tissue Adenosine Levels (% Increase vs. Saline)” value (ischemic rat hearts) was 29% and the IC50 [4] was 400 µM.
For `NC[C@H]1O[C@@H](n2cnc(C(N)=O)c2N)[C@H](O)[C@@H]1O` [Compound No. 21 (1-227), 5′-Amino-5′-deoxy-AICA-riboside], the “Half Life” value [7] was 1.30 h, the “Absolute Oral Bioavailability %” value ([7]; 10 mg/kg IV bolus and 20 mg/kg via stomach tube) was 71 ± 13 (n = 2) % and the IC50 [4] was 800 µM.
In the case of `Nc1c(C(=O)NCc2ccc(Cl)cc2)ncn1C1OC(CO)C(O)C1O` [Compound No. 29 (1-349), 5-amino-1-β-D-ribofuranosylimidazole-4-N-[(4-Chlorophenyl)methyl]carboxamide], the IC50 [2] is reported as 90 µM, the inhibition at 5 µM [5] is reported as 41 ± 11% and the inhibition at 50 µM [5] is reported as 67 ± 8%. For the same molecule, the EC50 [3] was 100 µM and the IC50 ([4]; Cavia porcellus) was 60 µM.
For `Nc1c(C(=O)NN2CCCCC2)ncn1[C@@H]1O[C@H](CO)[C@@H](O)[C@H]1O` [Compound No. 36 (1-207), 5-amino-4-(1-piperidinocarbamoyl)-1-β-D-ribofuranosylimidazole], the “Tissue Adenosine Levels (% Increase vs. Saline)” value (ischemic rat hearts) was 34%.
With `Nc1c(C(=O)Nc2ccc(Br)cc2)ncn1C1OC(CO)C(O)C1O` [Compound No. 55 (1-484), 5-Amino-1-β-D-ribofuranosylimidazole-4-N-(4-bromophenyl)carboxamide] the melting point was 214 to 216 °C (dec.) and the EC50 [3] was 60 µM.
Work on `Nc1c(C(=O)Nc2ccc(I)cc2)ncn1C1OC(CO)C(O)C1O` [Compound No. 57 (1-488), 5-Amino-1-β-D-ribofuranosyl-imidazole-4-N-(4-iodophenyl) carboxamide] yielded a melting point of 227 to 229 °C and an EC50 [3] of 80 µM.
Work on `Nc1c(C(=O)Nc2ccccc2Cl)ncn1C1OC(CO)C(O)C1O` [Compound No. 64 (1-519), 5-Amino-1-β-D-ribofuranosylimidazole-4-N-(2-chlorophenyl)carboxamide] yielded a melting point of 131 to 135 °C and an EC50 [3] of 48 µM.
`C[C@H]1O[C@@H](n2c(S)nc(C(N)=O)c2N)[C@H](O)[C@@H]1O` [Compound No. 67 (1-535), 5-Amino-2-thio-1-βD-(5 deoxyribofuranosyl)imidazole-4-carboxamide] showed an IC50 [1] of 23 µM.
`NC[C@H]1O[C@@H](n2c(S)nc(C(N)=O)c2N)[C@H](O)[C@@H]1O` [Compound No. 70 (1-551), 5-Amino-2-thio-1-(5-amino-5-deoxy-β-D-ribofuranosyl)imidazole-4-carboxamide] gave an IC50 [1] of 17 µM.
For `CC(=O)CC(c1ccccc1)c1c(O)c2ccccc2oc1=O` (stereo not shown) [Warfarin/coumadin], the “Odds Ratio for mortality (multivariate)” value ([6]; Warfarin/coumadin over the week prior to revascularization) was 2.00.
